What was measured:
Format in all cases: biochemical
[1] = target: CDK1-cyclin B (Homo sapiens, UniProt P06493); experiment: Kinase assay (radioactive phosphate incorporation), CDK1-cyclin B; settings: read-out: Kinase Inhibition pIC50 CDK1-cyclin B (converted)
How it was run: (§1)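 Inhibition was measured as transfer of radiolabelled phosphate from [γ-32P]-ATP (100 μM ATP, 15 mM MgCl2) onto polypeptide substrates by recombinant kinases or kinase complexes. Reactions ran at 30° C in MOPS/β-glycerophosphate buffer, pH 7.4, were stopped on ice and filtered before scintillation counting.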

[2] = target: CDK2-cyclin A (Homo sapiens, UniProt P24941); experiment: Kinase assay (radioactive phosphate incorporation), CDK2-cyclin A; settings: read-out: Kinase Inhibition pIC50 CDK2-cyclin A (converted)
How it was run: as §1

[3] = target: T1, protein kinases (panel of Table 4) (Homo sapiens, UniProt Q16539); experiment: Kinase selectivity profile, kinase inhibition IC50 (Table 4), ATP 100 μM; settings: kinase SAPK2a
T1 construct: other: kinase SAPK2a; ATP 100 μM

[4] = target: SAPK2a/p38 (Homo sapiens, UniProt Q16539); experiment: Kinase selectivity profile, SAPK2a/p38; settings: 5 μM test compound, compared to control; ATP 50 μM
Description: (§2) The kinase selectivity profiles of selected example compounds were determined, essentially as described (Bain, J.; McLauchlan, H.; Elliott, M.; Cohen, P. Biochemical Journal, 2003, 371, 199.); the results are shown in Tables 3 & 4. For the assays shown in Table 3, the kinases were assayed at the following ATP concentrations: SAPK4, PKBΔph, GSK3b, SAPK3, CK2, MKK1, PIM2, IKKB, ERK8, and PRK2 at 5 μM; JNK, PRAK, ROCK-II, SAPK2b, CDK2, CHK1, MSK1, CSK, P70S6K, PKA, CK1, MAPKAP-K2, SGK, PKCa, PDK1, NEK 7, and MAPKAP-K3 at 20 μM; SAPK2a, LCK, AMPK, MAPK2, DYRK1a, MAPKAP-K1a, NEK-6, NEK2a, PBK, CAMK-1, SRPK-1, JNK3, MNK2, RSK2, MNK1, PKBB, and SmMLCK at 50 μM. For the assays in Table 4 the ATP concentration was 100 μM throughout.

[5] = target: SAPK2b/p38β2 (Homo sapiens, UniProt Q15759); experiment: Kinase selectivity profile, SAPK2b/p38β2; settings: 5 μM test compound, compared to control; ATP 20 μM
Chain of SAPK2b/p38β2 (Q15759 whole entry): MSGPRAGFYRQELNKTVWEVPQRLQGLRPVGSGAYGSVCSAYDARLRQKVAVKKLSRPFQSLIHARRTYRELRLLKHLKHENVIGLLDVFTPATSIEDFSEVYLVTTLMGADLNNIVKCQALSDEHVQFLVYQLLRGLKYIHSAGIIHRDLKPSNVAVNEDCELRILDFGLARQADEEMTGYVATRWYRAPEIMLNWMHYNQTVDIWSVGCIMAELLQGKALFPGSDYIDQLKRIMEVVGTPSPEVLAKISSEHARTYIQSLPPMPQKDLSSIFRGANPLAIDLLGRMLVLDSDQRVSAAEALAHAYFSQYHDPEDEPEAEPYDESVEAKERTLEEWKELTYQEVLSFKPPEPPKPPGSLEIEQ
Description: as §2

[6] = target: SAPK3/p38g (Homo sapiens, UniProt P53778); experiment: Kinase selectivity profile, SAPK3/p38g; settings: 5 μM test compound, compared to control; ATP 5 μM
Chain of SAPK3/p38g (P53778 whole entry): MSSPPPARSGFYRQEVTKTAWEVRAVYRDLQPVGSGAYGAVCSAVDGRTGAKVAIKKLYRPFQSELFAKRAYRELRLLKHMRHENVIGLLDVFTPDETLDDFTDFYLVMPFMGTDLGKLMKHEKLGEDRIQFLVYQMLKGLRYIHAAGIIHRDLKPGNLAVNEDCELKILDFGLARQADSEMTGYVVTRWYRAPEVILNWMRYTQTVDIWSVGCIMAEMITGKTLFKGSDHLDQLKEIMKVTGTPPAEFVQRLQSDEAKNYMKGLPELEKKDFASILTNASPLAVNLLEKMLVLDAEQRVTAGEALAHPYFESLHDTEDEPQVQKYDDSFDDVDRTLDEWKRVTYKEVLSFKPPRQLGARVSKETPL
Description: as §2

[7] = target: SAPK4/p38d (Homo sapiens, UniProt O15264); experiment: Kinase selectivity profile, SAPK4/p38d; settings: 5 μM test compound, compared to control; ATP 5 μM
Chain of SAPK4/p38d (O15264 whole entry): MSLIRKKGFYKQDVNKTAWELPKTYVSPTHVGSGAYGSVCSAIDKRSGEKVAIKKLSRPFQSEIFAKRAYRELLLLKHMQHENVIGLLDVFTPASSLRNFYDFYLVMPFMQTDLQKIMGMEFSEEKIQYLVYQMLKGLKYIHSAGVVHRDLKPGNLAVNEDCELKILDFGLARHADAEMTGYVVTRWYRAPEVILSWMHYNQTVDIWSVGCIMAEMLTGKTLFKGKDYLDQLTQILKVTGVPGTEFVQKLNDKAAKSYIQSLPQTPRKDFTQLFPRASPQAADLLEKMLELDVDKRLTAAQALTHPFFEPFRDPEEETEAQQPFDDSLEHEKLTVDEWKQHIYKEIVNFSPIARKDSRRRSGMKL
Description: as §2

[8] = target: MSK1 (Homo sapiens, UniProt O75582); experiment: Kinase selectivity profile, MSK1; settings: 5 μM test compound, compared to control; ATP 20 μM
Chain of MSK1 (O75582 whole entry, species assumed): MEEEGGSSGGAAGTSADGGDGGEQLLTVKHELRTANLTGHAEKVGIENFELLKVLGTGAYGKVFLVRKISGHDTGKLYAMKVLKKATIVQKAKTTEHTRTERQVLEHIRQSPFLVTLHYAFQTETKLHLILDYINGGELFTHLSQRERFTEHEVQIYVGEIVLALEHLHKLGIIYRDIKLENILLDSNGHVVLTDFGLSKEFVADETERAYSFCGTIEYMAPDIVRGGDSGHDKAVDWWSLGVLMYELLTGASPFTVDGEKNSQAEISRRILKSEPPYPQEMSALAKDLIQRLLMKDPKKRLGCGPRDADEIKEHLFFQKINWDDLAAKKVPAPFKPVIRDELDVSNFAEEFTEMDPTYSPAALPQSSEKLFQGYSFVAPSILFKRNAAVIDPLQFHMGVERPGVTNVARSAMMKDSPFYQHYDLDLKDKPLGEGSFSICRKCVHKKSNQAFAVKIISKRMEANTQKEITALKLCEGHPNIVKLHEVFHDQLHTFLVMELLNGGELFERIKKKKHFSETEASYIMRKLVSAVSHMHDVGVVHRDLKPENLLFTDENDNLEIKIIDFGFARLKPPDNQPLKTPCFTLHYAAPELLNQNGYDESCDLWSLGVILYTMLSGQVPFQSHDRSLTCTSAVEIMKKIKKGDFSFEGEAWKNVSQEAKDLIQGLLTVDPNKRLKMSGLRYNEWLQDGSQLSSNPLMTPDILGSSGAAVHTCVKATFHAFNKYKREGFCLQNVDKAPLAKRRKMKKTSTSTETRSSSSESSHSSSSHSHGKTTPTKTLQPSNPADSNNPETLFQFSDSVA
Description: as §2

[9] = target: PRAK (Homo sapiens, UniProt Q8IW41); experiment: Kinase selectivity profile, PRAK; settings: 5 μM test compound, compared to control; ATP 20 μM
Description: as §2

[10] = target: PKCa (Homo sapiens, UniProt P17252); experiment: Kinase selectivity profile, PKCa; settings: 5 μM test compound, compared to control; ATP 20 μM
Description: as §2

[11] = target: PDK1 (Homo sapiens, UniProt O15530); experiment: Kinase selectivity profile, PDK1; settings: 5 μM test compound, compared to control; ATP 20 μM
Description: as §2

[12] = tested on: PKB; experiment: Kinase selectivity profile, PKB; settings: 5 μM test compound, compared to control; ATP 5 μM (PKBΔph)
Description: as §2

[13] = target: p70 S6K (Homo sapiens, UniProt P23443); experiment: Kinase selectivity profile, p70 S6K; settings: 5 μM test compound, compared to control; ATP 20 μM
Chain of p70 S6K (P23443 whole entry): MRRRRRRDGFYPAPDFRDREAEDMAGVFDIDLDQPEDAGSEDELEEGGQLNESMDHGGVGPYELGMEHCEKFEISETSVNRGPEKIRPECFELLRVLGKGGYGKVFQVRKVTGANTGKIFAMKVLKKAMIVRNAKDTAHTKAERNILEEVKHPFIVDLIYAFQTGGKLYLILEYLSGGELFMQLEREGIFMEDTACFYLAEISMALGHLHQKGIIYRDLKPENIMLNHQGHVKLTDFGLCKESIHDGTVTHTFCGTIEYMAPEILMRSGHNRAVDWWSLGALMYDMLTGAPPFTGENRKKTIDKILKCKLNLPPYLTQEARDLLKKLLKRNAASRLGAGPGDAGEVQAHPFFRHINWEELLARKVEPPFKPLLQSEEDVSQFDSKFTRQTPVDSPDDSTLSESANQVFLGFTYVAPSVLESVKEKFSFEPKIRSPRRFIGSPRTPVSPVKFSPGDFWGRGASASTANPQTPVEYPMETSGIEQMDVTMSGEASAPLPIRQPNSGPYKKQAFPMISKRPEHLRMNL
Description: as §2

[14] = tested on: PHK; experiment: Kinase selectivity profile, PHK; settings: 5 μM test compound, compared to control
Description: as §2

[15] = target: Lck (Homo sapiens, UniProt P06239); experiment: Kinase selectivity profile, Lck; settings: 5 μM test compound, compared to control; ATP 50 μM
Chain of Lck (P06239 whole entry, species assumed): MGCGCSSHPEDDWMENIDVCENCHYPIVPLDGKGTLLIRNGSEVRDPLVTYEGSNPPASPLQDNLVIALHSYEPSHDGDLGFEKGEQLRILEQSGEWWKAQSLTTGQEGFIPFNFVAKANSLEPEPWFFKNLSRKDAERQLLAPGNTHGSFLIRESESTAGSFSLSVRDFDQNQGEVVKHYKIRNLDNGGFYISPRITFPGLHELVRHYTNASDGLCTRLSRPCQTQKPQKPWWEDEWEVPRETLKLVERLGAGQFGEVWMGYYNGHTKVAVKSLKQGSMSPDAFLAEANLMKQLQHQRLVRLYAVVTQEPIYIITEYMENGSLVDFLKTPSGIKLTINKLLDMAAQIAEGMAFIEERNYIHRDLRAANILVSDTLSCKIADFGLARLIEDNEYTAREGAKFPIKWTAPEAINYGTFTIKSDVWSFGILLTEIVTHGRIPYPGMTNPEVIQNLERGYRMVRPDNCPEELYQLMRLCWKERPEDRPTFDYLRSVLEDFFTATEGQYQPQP
Description: as §2

[16] = tested on: CK1; experiment: Kinase selectivity profile, CK1; settings: 5 μM test compound, compared to control; ATP 20 μM
Description: as §2

[17] = target: NEK2a (Homo sapiens, UniProt P51955); experiment: Kinase selectivity profile, NEK2a; settings: 5 μM test compound, compared to control; ATP 50 μM
Chain of NEK2a (P51955 whole entry, species assumed): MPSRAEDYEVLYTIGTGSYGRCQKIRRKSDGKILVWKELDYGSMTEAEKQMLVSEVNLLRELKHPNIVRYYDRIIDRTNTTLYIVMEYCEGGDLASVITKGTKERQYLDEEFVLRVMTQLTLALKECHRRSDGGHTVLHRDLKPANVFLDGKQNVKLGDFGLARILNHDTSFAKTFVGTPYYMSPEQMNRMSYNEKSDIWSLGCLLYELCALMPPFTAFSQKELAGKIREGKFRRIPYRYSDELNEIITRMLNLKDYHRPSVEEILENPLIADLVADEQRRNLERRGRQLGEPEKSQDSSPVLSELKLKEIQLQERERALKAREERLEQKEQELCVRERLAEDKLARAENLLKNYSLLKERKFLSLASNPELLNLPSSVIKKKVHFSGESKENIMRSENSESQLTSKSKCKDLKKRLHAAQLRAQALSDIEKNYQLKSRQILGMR
Description: as §2

[18] = target: PIM2 (Homo sapiens, UniProt Q9P1W9); experiment: Kinase selectivity profile, PIM2; settings: 5 μM test compound, compared to control; ATP 5 μM
Chain of PIM2 (Q9P1W9 whole entry, species assumed): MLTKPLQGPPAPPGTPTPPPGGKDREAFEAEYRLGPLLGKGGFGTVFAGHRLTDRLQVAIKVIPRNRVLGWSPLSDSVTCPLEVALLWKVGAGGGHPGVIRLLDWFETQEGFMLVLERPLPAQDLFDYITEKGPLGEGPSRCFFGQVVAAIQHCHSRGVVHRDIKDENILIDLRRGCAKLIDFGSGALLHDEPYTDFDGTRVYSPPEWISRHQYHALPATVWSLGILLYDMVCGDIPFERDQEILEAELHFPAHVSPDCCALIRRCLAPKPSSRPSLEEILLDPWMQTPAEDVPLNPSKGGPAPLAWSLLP
Description: as §2

[19] = target: NEK7 (Homo sapiens, UniProt Q8TDX7); experiment: Kinase selectivity profile, NEK7; settings: 5 μM test compound, compared to control; ATP 20 μM
Description: as §2

[20] = target: MAPKAP-K3 (Homo sapiens, UniProt Q16644); experiment: Kinase selectivity profile, MAPKAP-K3; settings: 5 μM test compound, compared to control; ATP 20 μM
Chain of MAPKAP-K3 (Q16644 whole entry, species assumed): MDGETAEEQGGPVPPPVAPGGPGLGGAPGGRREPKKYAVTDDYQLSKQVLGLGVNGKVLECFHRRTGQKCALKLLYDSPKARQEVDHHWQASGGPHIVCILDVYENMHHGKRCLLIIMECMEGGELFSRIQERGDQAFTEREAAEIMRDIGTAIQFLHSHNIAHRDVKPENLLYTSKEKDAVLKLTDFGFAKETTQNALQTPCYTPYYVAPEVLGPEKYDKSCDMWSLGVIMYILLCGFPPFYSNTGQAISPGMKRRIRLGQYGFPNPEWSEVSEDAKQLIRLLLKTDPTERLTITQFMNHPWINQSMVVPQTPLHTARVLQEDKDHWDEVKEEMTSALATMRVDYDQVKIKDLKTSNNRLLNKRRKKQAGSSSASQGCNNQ
Description: as §2

[21] = target: ERK8 (Homo sapiens, UniProt Q8TD08); experiment: Kinase selectivity profile, ERK8; settings: 5 μM test compound, compared to control; ATP 5 μM
Description: as §2

Chain of CDK1-cyclin B (P06493 whole entry): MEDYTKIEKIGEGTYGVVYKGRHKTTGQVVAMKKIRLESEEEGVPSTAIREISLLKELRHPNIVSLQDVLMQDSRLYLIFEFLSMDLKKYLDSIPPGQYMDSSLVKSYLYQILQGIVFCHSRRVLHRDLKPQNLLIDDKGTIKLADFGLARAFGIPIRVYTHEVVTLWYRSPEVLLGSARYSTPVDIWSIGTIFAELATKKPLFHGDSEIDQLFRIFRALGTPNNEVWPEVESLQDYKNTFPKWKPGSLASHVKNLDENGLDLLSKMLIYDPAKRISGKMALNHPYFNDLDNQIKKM
Chain of CDK1-cyclin B (P14635 whole entry partner): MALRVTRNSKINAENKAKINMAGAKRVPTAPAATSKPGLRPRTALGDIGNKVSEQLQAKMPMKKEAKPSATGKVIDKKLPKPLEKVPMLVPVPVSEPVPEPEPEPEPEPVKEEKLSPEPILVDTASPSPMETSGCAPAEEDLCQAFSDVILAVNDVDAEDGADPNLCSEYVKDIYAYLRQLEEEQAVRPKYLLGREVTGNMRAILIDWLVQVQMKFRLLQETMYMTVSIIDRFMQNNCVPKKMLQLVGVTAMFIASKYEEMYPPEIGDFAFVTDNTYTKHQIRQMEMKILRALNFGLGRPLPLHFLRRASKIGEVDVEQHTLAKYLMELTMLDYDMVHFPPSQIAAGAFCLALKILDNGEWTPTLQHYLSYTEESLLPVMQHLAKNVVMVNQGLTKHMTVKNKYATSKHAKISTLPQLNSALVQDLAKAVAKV

| Structure (SMILES) | IC50 [1] [nM] | IC50 [2] [nM] | IC50 [3] [nM] | remaining activity at 5 µM [4] [%] | remaining activity at 5 µM [5] [%] | remaining activity at 5 µM [6] [%] | remaining activity at 5 µM [7] [%] | remaining activity at 5 µM [8] [%] | remaining activity at 5 µM [9] [%] | remaining activity at 5 µM [10] [%] | remaining activity at 5 µM [11] [%] | Remaining activity (%) PKB [12] [%] | remaining activity at 5 µM [13] [%] | Remaining activity (%) PHK [14] [%] | remaining activity at 5 µM [15] [%] | Remaining activity (%) CK1 [16] [%] | remaining activity at 5 µM [17] [%] | remaining activity at 5 µM [18] [%] | remaining activity at 5 µM [19] [%] | remaining activity at 5 µM [20] [%] | also measured |
| --- | --- | --- | --- | --- | --- | --- | --- | --- | --- | --- | --- | --- | --- | --- | --- | --- | --- | --- | --- | --- | --- |
| CNc1nc(C)c(-c2ccnc(Nc3cccc(S(C)(=O)=O)c3)n2)s1 [Compound 27, (3-Methanesulfonyl-phenyl)-[4-(4-methyl-2-methylamino-thiazol-5-yl)-pyrimidin-2-yl]-amine] | 251 | 6.31 | – | – | – | – | – | – | – | – | – | – | – | – | – | – | – | – | – | – | – |
| COCCNS(=O)(=O)c1cccc(Nc2nccc(-c3sc(N)nc3C)n2)c1 [Compound 55, 3-[4-(2-Amino-4-methyl-thiazol-5-yl)-pyrimidin-2-ylamino]-N-(2-methoxy-ethyl)-benzenesulfonamide] | 3160 | 2000 | – | – | – | – | – | – | – | – | – | – | – | – | – | – | – | – | – | – | – |
| CNc1nc(C)c(-c2ccnc(Nc3cccc(S(N)(=O)=O)c3)n2)s1 [Compound 19, 3-[4-(4-Methyl-2-methylamino-thiazol-5-yl)-pyrimidin-2-ylamino]-benzenesulfonamide] | 200 | – | 580 | – | – | – | – | – | – | – | – | – | – | – | – | – | – | – | – | – | – |
| Cc1nc(CS(=O)(=O)c2cccs2)sc1-c1ccnc(Nc2ccc(N3CCOCC3)cc2)n1 [Compound 138, {4-[4-Methyl-2-(thiophene-2-sulfonylmethyl)-thiazol-5-yl]-pyrimidin-2-yl}-(4-morpholin-4-yl-phenyl)-amine] | – | – | – | 33 | 42 | 74 | 85 | 69 | 59 | 41 | 55 | 91 | 41 | 15 | 7 | 27 | 6 | 93 | 79 | 104 | remaining activity at 5 µM [21]: 11% |
| CCNc1nc(C)c(-c2ccnc(Nc3ccc(N4CCNCC4)cc3)n2)s1 [Compound 59, [4-(2-Ethylamino-4-methyl-thiazol-5-yl)-pyrimidin-2-yl]-(4-piperazin-1-yl-phenyl)-amine] | 1000 | 501 | 3300 | 39 | 36 | 69 | 66 | 45 | 44 | 33 | 20 | 82 | 13 | 3 | 1 | 3 | 9 | 80 | 50 | 87 | remaining activity at 5 µM [21]: 4% |
